Source: ChEMBL document CHEMBL1133914, “Conformationally restricted indolopiperidine derivatives as potent CCR2B receptor antagonists” (Bioorg Med Chem Lett, 2001)
pKi: −log10 of the molar value. Several values for one entry are separate records, joined by “and”; a condition that tells them apart may be missing. Identical values can stand only once. Values belong to the compound of their own block, whether it stands above or below them. Activity calls are given as the source filed them. The calls are words filed in the database; no cut-off is given here.

Legend:
[1] = molecular target: T1, 5-hydroxytryptamine receptor 7 (Homo sapiens, UniProt P34969); assay: (§1) Binding affinity relative to indolopiperidine (compound 1) for 5-hydroxytryptamine 7 receptor was determined
[2] = molecular target: T2, 5-hydroxytryptamine receptor 1F (Homo sapiens) (UniProt P30939); assay: Binding affinity relative to indolopiperidine (compound 1) for 5-hydroxytryptamine 1F receptor was determined
T2 sequence (whole entry): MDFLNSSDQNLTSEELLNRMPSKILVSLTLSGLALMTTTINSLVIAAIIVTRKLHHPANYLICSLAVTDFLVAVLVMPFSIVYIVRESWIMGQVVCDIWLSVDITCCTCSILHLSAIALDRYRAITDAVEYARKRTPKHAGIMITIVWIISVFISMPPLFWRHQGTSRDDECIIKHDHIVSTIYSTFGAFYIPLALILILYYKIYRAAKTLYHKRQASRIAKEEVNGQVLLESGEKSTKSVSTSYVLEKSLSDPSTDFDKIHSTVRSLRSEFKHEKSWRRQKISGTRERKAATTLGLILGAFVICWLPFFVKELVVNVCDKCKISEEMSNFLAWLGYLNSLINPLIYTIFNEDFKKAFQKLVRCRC

[3] = molecular target: T3, D(2) dopamine receptor (Homo sapiens, UniProt P14416); assay: (§2) Binding affinity relative to indolopiperidine (compound 1) for Dopamine receptor D2 was determined
[4] = molecular target: T4, C-C chemokine receptor type 2 (Homo sapiens, UniProt P41597); assay: (§3) Inhibition of [125I]MCP-1 binding to the cloned C-C chemokine receptor type 2B expressed in CHO cells; format: cell-based
Target sequence in this assay (P41597 whole entry): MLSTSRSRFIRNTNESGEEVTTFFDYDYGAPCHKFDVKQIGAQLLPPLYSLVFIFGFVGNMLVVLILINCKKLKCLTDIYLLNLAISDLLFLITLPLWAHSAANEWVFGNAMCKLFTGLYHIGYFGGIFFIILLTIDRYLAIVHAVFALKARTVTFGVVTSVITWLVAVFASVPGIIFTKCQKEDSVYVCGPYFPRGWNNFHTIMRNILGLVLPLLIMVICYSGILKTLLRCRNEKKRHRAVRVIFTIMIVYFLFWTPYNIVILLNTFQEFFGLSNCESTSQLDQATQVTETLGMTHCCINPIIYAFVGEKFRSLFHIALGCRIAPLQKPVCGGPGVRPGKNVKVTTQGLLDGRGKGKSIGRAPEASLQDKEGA

[5] = molecular target: T5, 5-hydroxytryptamine receptor 2C (Homo sapiens, UniProt P28335); assay: Binding affinity for 5-hydroxytryptamine 2C receptor was determined
T5 sequence (P28335 whole entry): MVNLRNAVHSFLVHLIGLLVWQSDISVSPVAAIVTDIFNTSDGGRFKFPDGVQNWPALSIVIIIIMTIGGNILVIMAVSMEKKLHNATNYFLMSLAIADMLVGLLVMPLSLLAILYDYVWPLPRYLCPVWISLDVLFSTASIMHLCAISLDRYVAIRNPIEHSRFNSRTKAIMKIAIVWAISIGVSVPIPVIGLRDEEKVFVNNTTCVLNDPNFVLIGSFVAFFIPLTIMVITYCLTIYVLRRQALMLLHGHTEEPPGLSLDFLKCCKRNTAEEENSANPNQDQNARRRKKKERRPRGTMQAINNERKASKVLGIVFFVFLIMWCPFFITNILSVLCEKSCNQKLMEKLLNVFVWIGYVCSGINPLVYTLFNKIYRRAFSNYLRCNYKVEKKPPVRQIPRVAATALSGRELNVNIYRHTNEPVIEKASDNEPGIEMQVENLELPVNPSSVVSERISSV

[6] = molecular target: T6, 5-hydroxytryptamine receptor 1E (Homo sapiens, UniProt P28566); assay: Binding affinity relative to indolopiperidine (compound 1) for 5-hydroxytryptamine 1E receptor was determined
[7] = molecular target: T7, D(3) dopamine receptor (Homo sapiens, UniProt P35462); assay: (§4) Binding affinity relative to indolopiperidine (compound 1) for Dopamine receptor D3 was determined
[8] = molecular target: T8, 5-hydroxytryptamine receptor 2C (Homo sapiens) (UniProt P28335); assay: Binding affinity relative to indolopiperidine (compound 1) for 5-hydroxytryptamine 2C receptor was determined
T8 sequence (whole entry): T5 sequence (P28335 whole entry)

[9] = molecular target: T9, 5-hydroxytryptamine receptor 1B (Homo sapiens, UniProt P28222); assay: Binding affinity for 5-hydroxytryptamine 1B receptor was determined
[10] = molecular target: T10, 5-hydroxytryptamine receptor 2A (Homo sapiens, UniProt P28223); assay: Binding affinity for 5-hydroxytryptamine 2A receptor was determined
[11] = molecular target: T1, 5-hydroxytryptamine receptor 7; assay: as §1; remark: listed apart in the source
[12] = molecular target: T11, 5-hydroxytryptamine receptor 2B (Homo sapiens, UniProt P41595); assay: Binding affinity for 5-hydroxytryptamine 2B receptor was determined
[13] = molecular target: T10, 5-hydroxytryptamine receptor 2A; assay: Binding affinity relative to indolopiperidine (compound 1) for 5-hydroxytryptamine 2A receptor was determined
[14] = molecular target: T12, 5-hydroxytryptamine receptor 1A (Homo sapiens, UniProt P08908); assay: Binding affinity for 5-hydroxytryptamine 1A receptor was determined
T12 sequence (P08908 whole entry): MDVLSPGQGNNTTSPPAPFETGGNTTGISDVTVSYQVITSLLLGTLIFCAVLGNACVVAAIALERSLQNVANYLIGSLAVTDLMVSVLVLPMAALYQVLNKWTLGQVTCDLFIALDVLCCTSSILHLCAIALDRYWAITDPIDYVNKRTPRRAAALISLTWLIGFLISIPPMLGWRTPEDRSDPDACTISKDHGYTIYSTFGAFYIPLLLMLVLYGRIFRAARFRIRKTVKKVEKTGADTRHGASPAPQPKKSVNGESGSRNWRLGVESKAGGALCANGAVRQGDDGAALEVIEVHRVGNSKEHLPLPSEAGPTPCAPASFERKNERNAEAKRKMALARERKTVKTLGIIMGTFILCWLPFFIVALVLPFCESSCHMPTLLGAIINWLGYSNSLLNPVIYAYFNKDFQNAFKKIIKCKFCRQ

[15] = molecular target: T13, 5-hydroxytryptamine receptor 1A (Homo sapiens) (UniProt P08908); assay: Binding affinity relative to indolopiperidine (compound 1) for 5-hydroxytryptamine 1A receptor was determined
T13 sequence (whole entry): T12 sequence (P08908 whole entry)

[16] = molecular target: T14, 5-hydroxytryptamine receptor 6 (Homo sapiens, UniProt P50406); assay: Binding affinity for 5-hydroxytryptamine 6 receptor was determined
[17] = molecular target: T3, D(2) dopamine receptor; assay: as §2; remark: listed apart in the source
[18] = molecular target: T14, 5-hydroxytryptamine receptor 6; assay: Binding affinity relative to indolopiperidine (compound 1) for 5-hydroxytryptamine 6 receptor was determined
[19] = molecular target: T11, 5-hydroxytryptamine receptor 2B; assay: Binding affinity relative to indolopiperidine (compound 1) for 5-hydroxytryptamine 2B receptor was determined
[20] = molecular target: T7, D(3) dopamine receptor; assay: as §4; remark: listed apart in the source
[21] = molecular target: T6, 5-hydroxytryptamine receptor 1E; assay: Binding affinity for 5-hydroxytryptamine 1E receptor was determined
[22] = molecular target: T9, 5-hydroxytryptamine receptor 1B; assay: Binding affinity relative to indolopiperidine (compound 1) for 5-hydroxytryptamine 1B receptor was determined
[23] = molecular target: T15, 5-hydroxytryptamine receptor 1F (Homo sapiens, UniProt P30939); assay: Binding affinity for 5-hydroxytryptamine 1F receptor was determined
T15 sequence (P30939 whole entry): T2 sequence (whole entry)

[24] = molecular target: T4, C-C chemokine receptor type 2; assay: Binding affinity relative to indolopiperidine (compound 1) forC-C chemokine receptor type 2B was determined
Target sequence in this assay (P41597 whole entry, looked up): as the sequence (P41597 whole entry) above

[25] = molecular target: T4, C-C chemokine receptor type 2; assay: Binding affinity for C-C chemokine receptor type 2B was determined
Target sequence in this assay (P41597 whole entry): as the sequence (P41597 whole entry) above

[26] = molecular target: T4, C-C chemokine receptor type 2; assay: as §3; format: cell-based; remark: listed apart in the source
Target sequence in this assay (P41597 whole entry): as the sequence (P41597 whole entry) above

[27] = molecular target: T4, C-C chemokine receptor type 2; assay: Inhibition of [125I]MCP-1 binding to the cloned C-C chemokine receptor type 2B expressed in CHO cells; IA mean inactive; format: cell-based
Target sequence in this assay (P41597 whole entry, looked up): as the sequence (P41597 whole entry) above

[28] = molecular target: T4, C-C chemokine receptor type 2
Target sequence in this assay (P41597 whole entry, looked up): as the sequence (P41597 whole entry) above

[29] = molecular target: T10, 5-hydroxytryptamine receptor 2A; assay: Binding affinity relative to indolopiperidine (compound 1)for 5-hydroxytryptamine 2A receptor was determined
[30] = molecular target: T4, C-C chemokine receptor type 2; assay: Binding affinity relative to indolopiperidine (compound 1) for C-C chemokine receptor type 2B was determined
Target sequence in this assay (P41597 whole entry, looked up): as the sequence (P41597 whole entry) above

[31] = molecular target: T4, C-C chemokine receptor type 2; assay: as §3; format: cell-based; remark: listed apart in the source
Target sequence in this assay (P41597 whole entry): as the sequence (P41597 whole entry) above

[32] = molecular target: T1, 5-hydroxytryptamine receptor 7; assay: Binding affinity for 5-hydroxytryptamine 7 receptor was determined
[33] = molecular target: T3, D(2) dopamine receptor; assay: Binding affinity for Dopamine receptor D2 was determined
[34] = molecular target: T7, D(3) dopamine receptor; assay: Binding affinity for Dopamine receptor D3 was determined
[35] = molecular target: T4, C-C chemokine receptor type 2; assay: Inhibition of [125I]MCP-1 binding to the cloned C-C chemokine receptor type 2B expressed in CHO cells; IA means inactive; format: cell-based
Target sequence in this assay (P41597 whole entry, looked up): as the sequence (P41597 whole entry) above

T11 sequence (P41595 whole entry): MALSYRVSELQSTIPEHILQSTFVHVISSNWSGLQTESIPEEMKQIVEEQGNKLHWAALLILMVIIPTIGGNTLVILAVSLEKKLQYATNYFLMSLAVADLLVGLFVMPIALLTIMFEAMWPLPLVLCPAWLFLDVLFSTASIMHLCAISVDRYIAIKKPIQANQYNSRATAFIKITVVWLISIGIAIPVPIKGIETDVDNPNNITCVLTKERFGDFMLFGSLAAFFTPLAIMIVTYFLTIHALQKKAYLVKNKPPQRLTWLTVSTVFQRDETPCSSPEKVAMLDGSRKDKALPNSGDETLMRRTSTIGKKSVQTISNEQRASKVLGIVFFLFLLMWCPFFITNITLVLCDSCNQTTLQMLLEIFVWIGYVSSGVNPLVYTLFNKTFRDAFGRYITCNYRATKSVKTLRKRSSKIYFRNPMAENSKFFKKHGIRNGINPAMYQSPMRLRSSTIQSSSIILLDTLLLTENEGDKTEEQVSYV
T9 sequence (P28222 whole entry): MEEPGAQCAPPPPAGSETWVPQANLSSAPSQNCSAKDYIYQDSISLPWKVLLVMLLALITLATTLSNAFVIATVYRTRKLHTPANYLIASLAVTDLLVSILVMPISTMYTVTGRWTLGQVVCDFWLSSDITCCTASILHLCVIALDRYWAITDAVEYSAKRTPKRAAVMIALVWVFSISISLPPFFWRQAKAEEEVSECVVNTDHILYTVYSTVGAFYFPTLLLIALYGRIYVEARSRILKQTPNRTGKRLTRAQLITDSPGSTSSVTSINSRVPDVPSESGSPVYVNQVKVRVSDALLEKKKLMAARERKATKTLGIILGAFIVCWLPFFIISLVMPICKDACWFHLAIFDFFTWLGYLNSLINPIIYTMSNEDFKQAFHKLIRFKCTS
T6 sequence (P28566 whole entry): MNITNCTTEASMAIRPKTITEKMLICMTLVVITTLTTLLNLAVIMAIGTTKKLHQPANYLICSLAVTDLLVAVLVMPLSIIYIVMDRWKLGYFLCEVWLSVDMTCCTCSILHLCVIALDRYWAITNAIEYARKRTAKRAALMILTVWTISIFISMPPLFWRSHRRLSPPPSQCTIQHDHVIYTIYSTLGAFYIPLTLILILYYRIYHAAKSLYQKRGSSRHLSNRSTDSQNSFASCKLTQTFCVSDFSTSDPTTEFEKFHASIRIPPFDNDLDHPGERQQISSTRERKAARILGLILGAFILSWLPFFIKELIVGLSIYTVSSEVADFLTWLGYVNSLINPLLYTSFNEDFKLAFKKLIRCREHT
T7 sequence (P35462 whole entry): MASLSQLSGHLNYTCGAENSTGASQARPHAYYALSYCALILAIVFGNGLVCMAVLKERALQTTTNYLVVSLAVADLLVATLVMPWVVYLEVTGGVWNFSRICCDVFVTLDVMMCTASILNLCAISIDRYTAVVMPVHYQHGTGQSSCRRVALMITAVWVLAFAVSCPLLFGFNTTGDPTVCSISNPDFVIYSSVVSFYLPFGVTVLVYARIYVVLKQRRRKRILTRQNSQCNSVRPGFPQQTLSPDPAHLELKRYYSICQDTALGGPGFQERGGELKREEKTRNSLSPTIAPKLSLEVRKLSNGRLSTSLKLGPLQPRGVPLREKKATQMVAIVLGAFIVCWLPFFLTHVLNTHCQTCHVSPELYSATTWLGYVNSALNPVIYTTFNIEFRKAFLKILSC
T14 sequence (P50406 whole entry): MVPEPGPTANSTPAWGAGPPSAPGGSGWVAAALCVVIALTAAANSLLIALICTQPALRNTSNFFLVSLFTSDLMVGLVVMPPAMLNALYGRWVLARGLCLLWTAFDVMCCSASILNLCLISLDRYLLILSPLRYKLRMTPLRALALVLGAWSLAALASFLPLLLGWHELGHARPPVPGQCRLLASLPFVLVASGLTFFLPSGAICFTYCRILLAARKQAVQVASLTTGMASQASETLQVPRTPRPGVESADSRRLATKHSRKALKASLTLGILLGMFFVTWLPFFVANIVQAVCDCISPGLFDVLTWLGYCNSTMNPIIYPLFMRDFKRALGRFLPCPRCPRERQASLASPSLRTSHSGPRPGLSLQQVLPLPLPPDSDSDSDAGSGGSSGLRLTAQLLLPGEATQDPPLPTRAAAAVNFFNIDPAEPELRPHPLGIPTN
T3 sequence (P14416 whole entry): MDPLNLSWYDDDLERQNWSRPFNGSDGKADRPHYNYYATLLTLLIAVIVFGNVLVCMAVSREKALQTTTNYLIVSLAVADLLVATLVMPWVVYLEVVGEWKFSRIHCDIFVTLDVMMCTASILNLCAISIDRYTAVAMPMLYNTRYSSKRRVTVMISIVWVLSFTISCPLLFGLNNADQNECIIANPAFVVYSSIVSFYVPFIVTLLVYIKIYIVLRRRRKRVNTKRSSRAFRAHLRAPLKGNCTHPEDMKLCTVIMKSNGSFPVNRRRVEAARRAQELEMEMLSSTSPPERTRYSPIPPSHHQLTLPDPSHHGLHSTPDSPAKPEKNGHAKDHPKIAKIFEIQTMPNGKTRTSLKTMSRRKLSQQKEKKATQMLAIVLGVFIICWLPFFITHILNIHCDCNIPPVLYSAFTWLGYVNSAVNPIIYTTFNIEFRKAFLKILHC
T1 sequence (P34969 whole entry): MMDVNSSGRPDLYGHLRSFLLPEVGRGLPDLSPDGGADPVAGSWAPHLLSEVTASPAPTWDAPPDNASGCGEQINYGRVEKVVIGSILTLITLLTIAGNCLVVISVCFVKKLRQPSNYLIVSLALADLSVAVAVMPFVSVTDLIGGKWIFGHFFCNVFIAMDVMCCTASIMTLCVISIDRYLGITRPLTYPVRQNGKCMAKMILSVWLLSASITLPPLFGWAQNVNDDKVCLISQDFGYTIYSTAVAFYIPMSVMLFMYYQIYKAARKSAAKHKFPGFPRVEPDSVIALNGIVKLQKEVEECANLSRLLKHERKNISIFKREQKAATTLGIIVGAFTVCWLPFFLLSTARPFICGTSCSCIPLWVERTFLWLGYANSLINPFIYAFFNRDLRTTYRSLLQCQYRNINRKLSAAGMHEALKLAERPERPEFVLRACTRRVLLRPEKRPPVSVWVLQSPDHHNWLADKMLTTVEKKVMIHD
T10 sequence (P28223 whole entry): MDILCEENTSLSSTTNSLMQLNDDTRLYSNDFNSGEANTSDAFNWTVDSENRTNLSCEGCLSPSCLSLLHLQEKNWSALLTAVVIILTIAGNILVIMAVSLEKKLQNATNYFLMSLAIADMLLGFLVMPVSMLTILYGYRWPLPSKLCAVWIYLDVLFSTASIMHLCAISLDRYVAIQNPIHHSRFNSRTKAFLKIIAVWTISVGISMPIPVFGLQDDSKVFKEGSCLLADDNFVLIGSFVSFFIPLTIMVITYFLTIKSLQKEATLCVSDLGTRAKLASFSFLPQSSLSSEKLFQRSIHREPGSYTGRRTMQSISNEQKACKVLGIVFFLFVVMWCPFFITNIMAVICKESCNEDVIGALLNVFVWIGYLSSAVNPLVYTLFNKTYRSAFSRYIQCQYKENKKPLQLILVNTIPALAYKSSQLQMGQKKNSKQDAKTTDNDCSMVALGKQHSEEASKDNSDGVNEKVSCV

Structure (SMILES): O=C(/C=C/c1ccc(Cl)c(Cl)c1)N[C@H]1CC[C@@H](CN2[C@@H]3CC[C@H]2C[C@H](c2c[nH]c4ccc(O)cc24)C3)CC1
Log Ki [1]: < -6.1 | Delta pKi [2]: > -3 | Delta pKi [3]: -1.9 | pKi [4]: 7.40 | pKi [5]: < 5.50 | Delta pKi [6]: > -3.2 | Delta pKi [7]: -2.5 | Delta pKi [8]: > -1.6 | pKi [9]: 6.00 | pKi [10]: < 4.70 | Delta pKi [11]: > -1.9 | pKi [12]: 6.30 | Delta pKi [13]: -3 | pKi [14]: 5.10 | Delta pKi [15]: -1.9 | pKi [16]: 5.70 | pKi [17]: 5.90 | Delta pKi [18]: -1.4 | Delta pKi [19]: -1.3 | pKi [20]: 5.60 | pKi [21]: < 5.20 | Delta pKi [22]: -1.9 | pKi [23]: < 5.50 | Delta pKi [24]: 0.1 | pKi [25]: 7.40

Structure (SMILES): O=C(/C=C/c1ccc(Cl)c(Cl)c1)N[C@H]1CC[C@@H](CN2CCC(c3c[nH]c4ccccc34)CC2)CC1
pKi [26]: 6.90

Structure (SMILES): O=C(/C=C/c1ccc(Cl)c(Cl)c1)NCc1cccc(CN2CCC(c3c[nH]c4ccccc34)CC2)c1
Log Ki [27]: inactive

Structure (SMILES): O=C(/C=C/c1ccc(Cl)c(Cl)c1)NCCCCCN1[C@@H]2CC[C@H]1CC(c1c[nH]c3ccc(O)cc13)C2 (stereo in doubt) [listing 1 of 2 here]
Delta pKi [2]: -2.7 | Delta pKi [3]: -1.7 | Delta pKi [28]: -0.7 | Delta pKi [6]: -3.2 | Delta pKi [7]: -1.4 | Delta pKi [8]: -0.5 | Delta pKi [11]: -1.5 | Delta pKi [13]: -0.9 | Delta pKi [15]: -1.1 | Delta pKi [18]: -0.9 | Delta pKi [19]: -1.5 | Delta pKi [22]: -1.6

Structure (SMILES): O=C(/C=C/c1ccc(Cl)c(Cl)c1)N[C@H]1CC[C@@H](CN2CCC(c3c[nH]c4ccc(O)cc34)CC2)CC1
Delta pKi [2]: -2.6 | Delta pKi [3]: -0.8 | pKi [4]: 7.10 | Delta pKi [6]: -1.4 | Delta pKi [7]: -0.9 | Delta pKi [8]: -0.4 | Delta pKi [11]: -0.4 | Delta pKi [29]: -0.1 | Delta pKi [15]: -0.7 | Delta pKi [30]: -0.2 | Delta pKi [18]: -0.9 | Delta pKi [19]: -0.5 | pKi [31]: 7.10 and 6.90 | Delta pKi [22]: -1.2

pKi [5]: 7.10 | pKi [9]: 7.90 | pKi [10]: 7.70 | pKi [12]: 7.60 | pKi [14]: 7.00 | pKi [16]: 7.10 | pKi [32]: 7.20 | pKi [21]: 8.20 | pKi [23]: 8.50 | pKi [33]: 7.80 | pKi [34]: 8.10
Structure (SMILES): O=C(/C=C/c1ccc(Cl)c(Cl)c1)NCCCCCN1CCC(c2c[nH]c3ccc(O)cc23)CC1

Structure (SMILES): O=C(/C=C/c1ccc(Cl)c(Cl)c1)Nc1ccc(CN2CCC(c3c[nH]c4ccccc34)CC2)cc1
Log Ki [35]: inactive

Structure (SMILES): O=C(/C=C/c1ccc(Cl)c(Cl)c1)NCCCCCN1[C@@H]2CC[C@H]1CC(c1c[nH]c3ccc(O)cc13)C2 (stereo in doubt) [listing 2 of 2 here]
pKi [4]: 6.60 | pKi [26]: 6.60

Structure (SMILES): O=C(/C=C/c1ccc(Cl)c(Cl)c1)NCCCCCN1[C@@H]2CC[C@H]1CC(c1c[nH]c3ccc(O)cc13)C2 (single isomer, unassigned)
pKi [4]: 6.20 | pKi [31]: 6.20
